We go through 31 compounds from patent publication US10654853B2, “Spiro-condensed pyrrolidine derivatives as deubiquitylating enzymes (DUB) inhibitors” (MISSION THERAPEUTICS LIMITED, priority 2016, dated 2020).

Where two headings read alike, the source gives them in different places. A value given as a limit tells only on which side of the number the result lay.

A word on the IC50: it is the midpoint of a concentration-inhibition curve.

In the experiment the target is Cezanne 1 (Homo sapiens (Human), UniProt Q6GQQ9). Put plainly: Cezanne 1 biochemical IC50 assay (fluorescence polarisation, TAMRA labelled peptide linked to ubiquitin). The protocol:
The Cezanne 1 construct was PCR amplified and cloned into a pFLAG-CMV-6c vector (Sigma-Aldrich) with an N-terminal FLAG tag. HEK293T cells were transfected with FLAG-Cezanne 1 using TransIT-LT1 transfection reagent (Mirus) according to the manufacturer's instructions. Cells were harvested 48 hours after transfection. […] The resin was washed two times with low salt buffer and one time with high salt buffer (20 mM Tris, pH 7.5, 500 mM NaCl, 0.5 mM EDTA, 5 mM beta-mercaptoethanol, protease inhibitors (complete mini, Roche) and phosphatase inhibitors (PhosSTOP mini, Roche). To elute the bound Cezanne 1, elution buffer (10 mM Tris, pH 7.5, 150 mM NaCl, 0.5 mM EDTA, 10% glycerol, 0.5% NP40, 5 mM beta-mercaptoethanol, 0.15 mg/ml 3× FLAG peptide (Sigma-Aldrich)) was added to the resin and incubated at 4° C. for 2.5 hours while rotating. The resin was centrifuged at 4000 rpm for 30 seconds, and the supernatant containing purified FLAG-Cezanne 1 was removed and stored at −80° C. […] Dilution plates were prepared at 21 times the final concentration (2100 μM for a final concentration of 100 μM) in 50% DMSO in a 96-well polypropylene V-bottom plate (Greiner #651201). […] Reactions were performed in duplicate in black 384 well plates (small volume, Greiner 784076) in a final reaction volume of 21 μl. Either 1 μl of 50% DMSO or diluted compound was added to the plate. Cezanne 1 was diluted in reaction buffer (40 mM Tris, pH 7.5, 0.005% Tween 20, 0.5 mg/ml BSA, 5 mM—beta-mercaptoethanol) to the equivalent of 0.005 μl/well and 10 μl of diluted Cezanne 1 was added to the compound. Enzyme and compound were incubated for 30 min at room temp. Reactions were initiated by the addition of 50 nM of TAMRA labelled peptide linked to ubiquitin via an iso-peptide bond as fluorescence polarisation substrate. Reactions were read immediately after addition of substrate and following a 2 hr incubation at room temperature. Readings were performed on a Pherastar Plus (BMG Labtech). λ Excitation 540 nm; λ Emission 590 nm.
In general terms: Fluorescence polarisation rises when a labelled molecule tumbles more slowly, as on binding a larger partner.

Setting [1] is: Cezanne 1 biochemical IC50 assay, 30 min pre-incubation, read after 2 hr at room temperature, read-out: IC50 range.

Cezanne 1, sequence (Q6GQQ9 whole entry): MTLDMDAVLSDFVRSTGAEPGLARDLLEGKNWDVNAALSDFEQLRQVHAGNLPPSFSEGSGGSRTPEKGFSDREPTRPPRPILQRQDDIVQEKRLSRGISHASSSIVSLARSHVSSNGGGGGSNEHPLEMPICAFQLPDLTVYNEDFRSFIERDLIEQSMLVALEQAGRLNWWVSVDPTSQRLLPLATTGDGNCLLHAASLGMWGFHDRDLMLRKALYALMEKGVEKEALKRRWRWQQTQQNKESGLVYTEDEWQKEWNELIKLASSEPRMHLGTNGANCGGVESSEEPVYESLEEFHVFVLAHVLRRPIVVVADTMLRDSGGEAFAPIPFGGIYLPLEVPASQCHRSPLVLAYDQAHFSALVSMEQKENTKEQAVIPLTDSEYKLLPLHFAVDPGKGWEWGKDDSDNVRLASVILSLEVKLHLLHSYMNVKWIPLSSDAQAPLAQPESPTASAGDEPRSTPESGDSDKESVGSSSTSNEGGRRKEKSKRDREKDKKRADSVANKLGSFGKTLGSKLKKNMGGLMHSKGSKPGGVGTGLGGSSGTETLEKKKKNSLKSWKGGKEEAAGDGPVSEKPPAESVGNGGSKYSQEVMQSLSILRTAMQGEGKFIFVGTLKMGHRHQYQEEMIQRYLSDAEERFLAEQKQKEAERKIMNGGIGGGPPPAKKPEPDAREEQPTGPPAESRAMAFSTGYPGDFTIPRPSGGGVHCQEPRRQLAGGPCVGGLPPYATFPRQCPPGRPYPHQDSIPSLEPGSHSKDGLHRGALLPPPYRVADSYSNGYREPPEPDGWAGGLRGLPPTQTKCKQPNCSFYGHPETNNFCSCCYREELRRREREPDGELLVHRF

For the compound `CC1CC2(CCN(C#N)C2)C(=O)N1` (single isomer, unassigned) [Example 82, 8-Methyl-6-oxo-2,7-diazaspiro[4.4]nonane-2-carbonitrile], the IC50 under setting [1] is over 10000 nM.
Still for that read-out and setting: to `CC1CC2(CCN(C#N)C2)C(=O)N1` (single isomer, unassigned) [Example 83, 8-Methyl-6-oxo-2,7-diazaspiro[4.4]nonane-2-carbonitrile] belongs over 10000 nM; to `N#CN1CCC2(CC(c3ccccc3)NC2=O)C1` (single isomer, unassigned) [Example 84, 6-Oxo-8-phenyl-2,7-diazaspiro[4.4]nonane-2-carbonitrile], over 10000 nM.
`N#CN1CCC2(Cc3ccccc3NC2=O)C1` (stereo not shown) [Example 1, 2′-Oxo-1′,4′-dihydro-2′H-spiro[pyrrolidine-3,3′-quinoline]-1-carbonitrile]: the half-inhibitory concentration (IC50) under setting [1] lay in the range of 1000 to 10000 nM.
`N#CN1CCC2(Cc3ccc(Cl)cc3NC2=O)C1` (stereo not shown) [Example 2, 7′-Chloro-2′-oxo-1′,4′-dihydro-2′H-spiro[pyrrolidine-3,3′-quinoline]-1-carbonitrile] showed an IC50 of 1000 to 10000 nM.
In turn, `COc1ccc2c(c1)NC(=O)C1(CCN(C#N)C1)C2` (stereo not shown) [Example 3, 7′-Methoxy-2′-oxo-1′,4′-dihydro-2′H-spiro[pyrrolidine-3,3′-quinoline]-1-carbonitrile] came in with an IC50 of 1000 to 10000 nM.
Regarding `N#CN1CCC2(Cc3ccc(-c4ccccc4)cc3NC2=O)C1` (stereo not shown) [Example 4, 2′-Oxo-7′-phenyl-1′,4′-dihydro-2′H-spiro[pyrrolidine-3,3′-quinoline]-1-carbonitrile], under setting [1], the concentration for half-maximal inhibition (IC50) was in the range of 1000 to 10000 nM.
On the same count and under the same terms, the figure for `COc1ccc(C(C)C)cc1-c1ccc2c(c1)NC(=O)C1(CCN(C#N)C1)C2` (stereo not shown) [Example 5, 7′-(5-Isopropyl-2-methoxyphenyl)-2′-oxo-1′,4′-dihydro-2′H-spiro[pyrrolidine-3,3′-quinoline]-1-carbonitrile] is 1000 to 10000 nM.
`N#CN1CCC2(Cc3ccc(-c4ccc(-c5ccccc5)cc4)cc3NC2=O)C1` (stereo not shown) [Example 6, 7′-([1,1′-Biphenyl]-4-yl)-2′-oxo-1′,4′-dihydro-2′H-spiro[pyrrolidine-3,3′-quinoline]-1-carbonitrile]: the concentration for half-maximal inhibition (IC50) is 1000 to 10000 nM.
`N#CN1CCC2(Cc3ccc(-c4ccc(Oc5ccccc5)cc4)cc3NC2=O)C1` (stereo not shown) [Example 11, 2′-Oxo-7′-(4-phenoxyphenyl)-1′,4′-dihydro-2′H-spiro[pyrrolidine-3,3′-quinoline]-1-carbonitrile]: under setting [1], the IC50 fell in the range of 1000 to 10000 nM.
`Cn1cc(-c2ccc3c(c2)NC(=O)C2(CCN(C#N)C2)C3)cn1` (stereo not shown) [Example 12, 7′-(1-Methyl-1H-pyrazol-4-yl)-2′-oxo-1′,4′-dihydro-2′H-spiro[pyrrolidine-3,3′-quinoline]-1-carbonitrile]: under setting [1], the 50% inhibitory concentration (IC50) was in the range of 1000 to 10000 nM.
Turning to `N#Cc1ccc(-c2ccc3c(c2)NC(=O)C2(CCN(C#N)C2)C3)cc1` (stereo not shown) [Example 13, 7′-(4-Cyanophenyl)-2′-oxo-1′,4′-dihydro-2′H-spiro[pyrrolidine-3,3′-quinoline]-1-carbonitrile], the half-maximal inhibitory concentration (IC50) under setting [1] fell in the range of 1000 to 10000 nM.
On the same count and under the same terms, the figure for `N#CN1CCC2(Cc3ccc(-c4cc(OC(F)(F)F)ccc4Cl)cc3NC2=O)C1` (stereo not shown) [Example 14, 7′-(2-Chloro-5-(trifluoromethoxy)phenyl)-2′-oxo-1′,4′-dihydro-2′H-spiro[pyrrolidine-3,3′-quinoline]-1-carbonitrile] is 1000 to 10000 nM; for `CNC(=O)c1ccc(-c2ccc3c(c2)NC(=O)C2(CCN(C#N)C2)C3)cn1` (stereo not shown) [Example 15, 5-(1-Cyano-2′-oxo-1′,4′-dihydro-2′H-spiro[pyrrolidine-3,3′-quinolin]-7′-yl)-N-methylpicolinamide] it is 1000 to 10000 nM; for `CNC(=O)c1ccc(-c2ccc3c(c2)NC(=O)C2(CCN(C#N)C2)C3)cc1` (stereo not shown) [Example 17, 4-(1-Cyano-2′-oxo-1′,4′-dihydro-2′H-spiro[pyrrolidine-3,3′-quinolin]-7′-yl)-N-methylbenzamide] it is 1000 to 10000 nM.
As to `CN1CCN(c2ccc(-c3ccc4c(c3)NC(=O)C3(CCN(C#N)C3)C4)cc2)CC1` (stereo not shown) [Example 19, 7′-(4-(4-Methylpiperazin-1-yl)phenyl)-2′-oxo-1′,4′-dihydro-2′H-spiro[pyrrolidine-3,3′-quinoline]-1-carbonitrile], the IC50 under setting [1] fell in the range of 100 to 1000 nM.
On the same count and under the same terms, to `CC(C)Oc1ccc(F)cc1-c1ccc2c(c1)NC(=O)C1(CCN(C#N)C1)C2` (stereo not shown) [Example 21, 7′-(5-Fluoro-2-isopropoxyphenyl)-2′-oxo-1′,4′-dihydro-2′H-spiro[pyrrolidine-3,3′-quinoline]-1-carbonitrile] belongs 100 to 1000 nM; to `CN1CCN(C(=O)c2ccc(-c3ccc4c(c3)NC(=O)C3(CCN(C#N)C3)C4)cc2)CC1` (stereo not shown) [Example 23, 7′-(4-(4-Methylpiperazine-1-carbonyl)phenyl)-2′-oxo-1′,4′-dihydro-2′H-spiro[pyrrolidine-3,3′-quinoline]-1-carbonitrile], 100 to 1000 nM; to `Cn1ncc2cc(-c3ccc4c(c3)NC(=O)C3(CCN(C#N)C3)C4)ccc21` (stereo not shown) [Example 24, 7′-(1-Methyl-1H-indazol-5-yl)-2′-oxo-1′,4′-dihydro-2′H-spiro[pyrrolidine-3,3′-quinoline]-1-carbonitrile], under 100 nM.
Consider `Cc1ccc2[nH]ncc2c1-c1ccc2c(c1)NC(=O)C1(CCN(C#N)C1)C2` (stereo not shown) [Example 25, 7′-(5-Methyl-1H-indazol-4-yl)-2′-oxo-1′,4′-dihydro-2′H-spiro[pyrrolidine-3,3′-quinoline]-1-carbonitrile], for which the IC50 under setting [1] was in the range of 100 to 1000 nM.
With `N#CN1CCC2(Cc3ccc(-c4cccc(NS(=O)(=O)C5CC5)c4)cc3NC2=O)C1` (stereo not shown) [Example 26, N-(3-(1-Cyano-2′-oxo-1′,4′-dihydro-2′H-spiro[pyrrolidine-3,3′-quinolin]-7′-yl)phenyl)cyclopropanesulfonamide], the concentration for half-maximal inhibition (IC50) under setting [1] lay in the range of 100 to 1000 nM.
Regarding `Cc1n[nH]cc1-c1ccc2c(c1)NC(=O)C1(CCN(C#N)C1)C2` (stereo not shown) [Example 27, 7′-(3-Methyl-1H-pyrazol-4-yl)-2′-oxo-1′,4′-dihydro-2′H-spiro[pyrrolidine-3,3′-quinoline]-1-carbonitrile], the 50% inhibitory concentration (IC50) under setting [1] was 1000 to 10000 nM.
For the compound `N#CN1CCC2(Cc3ccc(-c4cncnc4)cc3NC2=O)C1` (stereo not shown) [Example 28, 2′-Oxo-7′-(pyrimidin-5-yl)-1′,4′-dihydro-2′H-spiro[pyrrolidine-3,3′-quinoline]-1-carbonitrile], the half-maximal inhibitory concentration (IC50) under setting [1] lay within 100 to 1000 nM.
With `CC(=O)Nc1cccc(-c2ccc3c(c2)NC(=O)C2(CCN(C#N)C2)C3)c1` (stereo not shown) [Example 29, N-(3-(1-Cyano-2′-oxo-1′,4′-dihydro-2′H-spiro[pyrrolidine-3,3′-quinolin]-7′-yl)phenyl)acetamide], under setting [1], the 50% inhibitory concentration (IC50) was 1000 to 10000 nM.
As for `CN(C)C(=O)c1cccc(-c2ccc3c(c2)NC(=O)C2(CCN(C#N)C2)C3)c1` (stereo not shown) [Example 30, 3-(1-Cyano-2′-oxo-1′,4′-dihydro-2′H-spiro[pyrrolidine-3,3′-quinolin]-7′-yl)-N,N-dimethylbenzamide], the IC50 under setting [1] was in the range of 100 to 1000 nM.
For the compound `CC(=O)Nc1ccc(-c2ccc3c(c2)NC(=O)C2(CCN(C#N)C2)C3)cc1` (stereo not shown) [Example 31, N-(4-(1-Cyano-2′-oxo-1′,4′-dihydro-2′H-spiro[pyrrolidine-3,3′-quinolin]-7′-yl)phenyl)acetamide], the IC50 under setting [1] lay within 1000 to 10000 nM.
Same read-out and setting: the figure for `N#CN1CCC2(Cc3ccc(-c4ccc(S(=O)(=O)N5CCOCC5)cc4)cc3NC2=O)C1` (stereo not shown) [Example 32, 7′-(4-(Morpholinosulfonyl)phenyl)-2′-oxo-1′,4′-dihydro-2′H-spiro[pyrrolidine-3,3′-quinoline]-1-carbonitrile] is 1000 to 10000 nM; for `Cc1n[nH]c(C)c1-c1ccc2c(c1)NC(=O)C1(CCN(C#N)C1)C2` (stereo not shown) [Example 33, 7′-(3,5-Dimethyl-1H-pyrazol-4-yl)-2′-oxo-1′,4′-dihydro-2′H-spiro[pyrrolidine-3,3′-quinoline]-1-carbonitrile] it is 1000 to 10000 nM; for `Cc1cc(-c2ccc3c(c2)NC(=O)C2(CCN(C#N)C2)C3)ccn1` (stereo not shown) [Example 34, 7′-(2-Methylpyridin-4-yl)-2′-oxo-1′,4′-dihydro-2′H-spiro[pyrrolidine-3,3′-quinoline]-1-carbonitrile] it is 1000 to 10000 nM.
For the compound `N#CN1CCC2(Cc3ccc(-c4cccc(N5CCCCC5)c4)cc3NC2=O)C1` (stereo not shown) [Example 35, 2′-Oxo-7′-(3-(piperidin-1-yl)phenyl)-1′,4′-dihydro-2′H-spiro[pyrrolidine-3,3′-quinoline]-1-carbonitrile], the 50% inhibitory concentration (IC50) under setting [1] lay within 1000 to 10000 nM.
Still for that read-out and setting: to `CC(=O)Nc1ccccc1-c1ccc2c(c1)NC(=O)C1(CCN(C#N)C1)C2` (stereo not shown) [Example 36, N-(2-(1-Cyano-2′-oxo-1′,4′-dihydro-2′H-spiro[pyrrolidine-3,3′-quinolin]-7′-yl)phenyl)acetamide] belongs 100 to 1000 nM.
